Laboratory results reported in PMC4860824, “Targeting the γ-/β-secretase interaction reduces β-amyloid generation and ameliorates Alzheimer’s disease-related pathogenesis” (Cell Discovery, 2015).

Target: T1, presenilin-1 (PS1) (Homo sapiens, UniProt P49768)
T1 construct: gene PSEN1; PS1-NTF
Experiment: dose-dependent competition with XYT1032 photo-affinity labelling in HEK293T cells ([…])
Assay type: cell-based

For `C=C1CCC2(C(=O)O)CC[C@]3(C)C(=CC[C@H]4C3(C)CC[C@H]3C(C)(C)[C@H](O)CC[C@@]34C)[C@@H]2C1` (stereo partly drawn) [3AA, 3-α-Akebonoic acid], the “dose-dependent competition with XYT1032 photo-affinity labelling in HEK293T cell” value was “in the presence of XYT472B or 3AA, the labeling of PS1-NTF was decreased dose dependently”.
